Data on 13 molecules can be found in patent US6444685B1, “N-(4-sulfonylaryl)Cyclylamine 2-hydroxyethylamines as beta-3 adrenergic receptor agonists” (Wyeth, priority 2000, dated 2002).

Usually EC50 stands for the concentration that produces a half-maximal response.

Holding throughout (format): cell-based
Assay [1] addresses T1, human β1-adrenergic receptor (Homo sapiens, UniProt P08588).
T1 construct: expressed in transfected cells; host or cells: CHO cells
The experiment in a line: cAMP accumulation (SPA) in CHO cells transfected with human β1 adrenergic receptor. The note with it: for EC50: CHO cells transfected with human β1-AR, cAMP, 15 min incubation, 10^−8 to 10^−4 M, read-out: beta-1 EC50; for beta-1 (IA) maximal response relative to isoproterenol: IA = % activity compound / % activity isoproterenol at 10^−5 M, CHO human β1 cells. The method, then: (§1) The ability of compounds of this invention to treat or inhibit disorders related to insulin resistance or hyperglycemia was established with representative compounds of this invention in the following standard pharmacological test procedures, which measured the binding selectivity to the β1, β2, and β3 adrenergic receptors. Binding to the receptors was measured in Chinese Hamster ovary (CHO) cells that were transfected with adrenergic receptors. The following briefly summarizes the procedures used and results obtained.
(§2) Transfection of CHO cells with β1 and β2 adrenergic receptors: CHO cells were transfected with human β1- or β2-adrenergic receptors as described in Tate, K. M., Eur. J. Biochem., 196:357-361 (1991).
(§3) Binding Procedure: Clones expressing receptor levels of 70 to 110 fmoles/mg protein were used in the test procedures. CHO cells were grown in 24-well tissue culture plates in Dulbecco's Modified Eagle Media with 10% fetal bovine serum, MEM non-essential amino acids, Penicillin-Streptompycin and Geneticin. On the day of test procedure, growth medium was replaced with preincubation media (Dulbecco's Modified Eagle Media and incubated for 30 minutes at 37° C. Preincubation medium was replaced with 0.2 ml treatment medium containing DMEM media containing 250 μM IBMX (isobutyl-1-methylxantine) plus 1 mM ascorbic acid with test compound dissolved in DMSO. Test compounds were tested over a concentration range of 10^−9 M to 10^−5 M for β3 cells and 10^−8 to 10^−4 M for β1 and β2 transfected cells. Isoproterenol (10^−5 M) was used as an internal standard for comparison of activity. Cells were incubated at 37° C. on a rocker for 30 min with the β3 cells and 15 min for β1 and β2 cells. Incubation was stopped with the addition of 0.2N HCl and neutralized with 2.5N NaOH. The plates, containing the cells and neutralized media, were stored at −20 degrees celsius until ready to test for cAMP using the SPA test kit (Amersham).
(§4) Data Analysis and Results: Data collected from the SPA test procedure were analyzed as per cent of the maximal isoproterenol response at 10^−5 M. Activity curves were plotted using the SAS statistical and graphics software. EC50 values were generated for each compound and the maximal response (IA) developed for each compound is compared to the maximal response of isoproternol at 10^−5 M from the following formula:
(§5) IA=% activity compound/% activity isoproterenol

In assay [2] the target is T2, human β2-adrenergic receptor (Homo sapiens, UniProt P07550).
T2 construct: expressed in transfected cells; host or cells: CHO cells
The experiment in a line: cAMP accumulation (SPA) in CHO cells transfected with human β2 adrenergic receptor. As to conditions: for EC50: CHO cells transfected with human β2-AR, cAMP, 15 min incubation, 10^−8 to 10^−4 M, read-out: beta-2 EC50; for beta-2 (IA) maximal response relative to isoproterenol: IA = % activity compound / % activity isoproterenol at 10^−5 M, CHO human β2 cells. The method, then: as §1, §2, §3, §4, §5
A general note: Changes in cAMP serve as a functional read-out for many G protein-coupled receptors.

Assay [3] deals with T3, human β3 adrenergic receptor (Homo sapiens, UniProt P13945).
T3 construct: Full length β3 AR clones (402 amino acids) containing the last 6 amino acids of hβ3— AR are prepared; expressed in transfected cells; host or cells: CHO cells
T3 sequence (P13945 whole entry): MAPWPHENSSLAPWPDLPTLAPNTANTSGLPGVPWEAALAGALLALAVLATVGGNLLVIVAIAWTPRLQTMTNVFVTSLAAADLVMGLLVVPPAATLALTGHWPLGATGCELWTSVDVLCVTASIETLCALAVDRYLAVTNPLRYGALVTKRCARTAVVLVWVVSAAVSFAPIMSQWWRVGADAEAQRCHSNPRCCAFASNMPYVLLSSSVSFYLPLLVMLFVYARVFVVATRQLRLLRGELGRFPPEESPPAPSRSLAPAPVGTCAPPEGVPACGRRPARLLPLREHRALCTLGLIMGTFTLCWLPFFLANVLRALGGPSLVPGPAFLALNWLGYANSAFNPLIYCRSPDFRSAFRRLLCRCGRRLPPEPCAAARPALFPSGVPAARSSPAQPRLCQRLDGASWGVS
Nature of the assay: cAMP accumulation (SPA) in CHO cells transfected with human β3 adrenergic receptor. The note with it: for EC50: CHO cells expressing human β3-AR, cAMP, 30 min incubation, 10^−9 M to 10^−5 M, read-out: beta-3 EC50; for beta-3 (IA) maximal response relative to isoproterenol: IA = % activity compound / % activity isoproterenol at 10^−5 M, CHO human β3 cells. As to the method: as §1
Cloning of Human β3-AR Genomic DNA: cDNA was constructed by ligating four polymerase chain reaction (PCR) products using the following primers: an ATG-Narl fragment, sense primer 5′-[…]3′ and anti-sense primer 5′[…]3′; a Narl-Accl fragment, 5′[…]3′ as sense and 5′[…]3′ as anti-sense primer; an Accli-Styl fragment, sense primer 5′[…]3′ and anti-sense primer 5′[…]3′ and a Styl-TAG fragment, with sense primer 5′[…]3′ and anti-sense primer 5′[…]3′. The corresponding primer sequences are described in Mantzoros, C. S., et.al., Diabetes 45: 909-914 (1996). The four fragments are ligated into a pUC 18 plasmid (Gibco-BRL) and sequenced. Full length β3 AR clones (402 amino acids) containing the last 6 amino acids of hβ3— AR are prepared with the β3-βARpcDNA3from ATTC.
as §3, §4, §5

T1 sequence (P08588 whole entry): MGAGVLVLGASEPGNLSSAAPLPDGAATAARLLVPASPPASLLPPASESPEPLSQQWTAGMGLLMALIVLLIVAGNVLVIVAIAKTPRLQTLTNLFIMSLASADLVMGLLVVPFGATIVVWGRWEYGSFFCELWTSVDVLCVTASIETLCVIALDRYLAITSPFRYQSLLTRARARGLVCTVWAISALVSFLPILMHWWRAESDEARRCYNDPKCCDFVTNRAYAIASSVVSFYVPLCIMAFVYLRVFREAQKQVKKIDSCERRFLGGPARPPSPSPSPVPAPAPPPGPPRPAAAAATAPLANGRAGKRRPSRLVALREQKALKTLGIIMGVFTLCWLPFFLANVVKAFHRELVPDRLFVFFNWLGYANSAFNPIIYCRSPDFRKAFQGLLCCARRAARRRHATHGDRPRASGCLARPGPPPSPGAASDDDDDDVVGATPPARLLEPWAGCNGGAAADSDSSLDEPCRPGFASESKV

As for “1-(4-{4-[2-Hydroxy-2-(4-hydroxy-3-methanesulfonylmethyl-phenyl)-ethylamino]-piperidin-1-yl}-benzenesulfonylamino)-cyclopentane Carboxylic Acid Ethyl Ester [Example 40]”, in assay [1], the concentration for a half-maximal effect (EC50) worked out at 1900 nM and the “beta-1 (IA) maximal response relative to isoproterenol” value was “(0.45)”. In assay [2], the EC50 was 40 nM and the “beta-2 (IA) maximal response relative to isoproterenol” value is “(0.31)”. In assay [3], the EC50 came to 4 nM and the “beta-3 (IA) maximal response relative to isoproterenol” value was “(1.2)”.

As to “1-(4-{4-[2-Hydroxy-2-(4-hydroxy-3-methanesulfonylmethyl-phenyl)ethylamino]-piperidin-1-yl}-benzenesulfonylamino)cyclohexane Carboxylic Acid Ethyl Ester [Example 43]”, in assay [1], the EC50 was 1280 nM and the “beta-1 (IA) maximal response relative to isoproterenol” value is given as “(0.58)”. Also, in assay [2], the EC50 was determined as 90 nM and the “beta-2 (IA) maximal response relative to isoproterenol” value is recorded as “(0.68)”. Besides, in assay [3], the half-maximal effective concentration (EC50) amounted to 1 nM and the “beta-3 (IA) maximal response relative to isoproterenol” value is “(1)”.

Regarding `COc1ccc(N(Cc2ccccc2)S(=O)(=O)c2ccc(N3CCC(NCC(O)COc4cccc5[nH]c(=O)[nH]c45)CC3)cc2)cc1OC` (stereo not shown) [Example 1, N-Benzyl-N-(3,4-dimethoxy-phenyl)-4-{4-[2-hydroxy-3-(2-oxo-2,3-dihydro-1H-benzoimidazol-4-yloxy)-propylamino]-piperidin-1-yl}-benzenesulfonamide], the “beta-1 (IA) maximal response relative to isoproterenol” value in assay [1] is reported as “(0.09)”. Moreover, the “beta-2 (IA) maximal response relative to isoproterenol” value in assay [2] is “(0)”. In addition, in assay [3], the EC50 turned out to be 17 nM and the “beta-3 (IA) maximal response relative to isoproterenol” value is recorded as “(0.92)”.

Turning to `CCCCN(Cc1ccccc1)S(=O)(=O)c1ccc(N2CCC(NC[C@H](O)COc3cccc4[nH]c(=O)[nH]c34)CC2)cc1` [Example 2, N-Benzyl-N-butyl-4-{4-[(2S)-2-hydroxy-3-(2-oxo-2,3-dihydro-1H-benzoimidazol-4-yloxy)-propylamino]-piperidin-1-yl}-benzenesulfonamide], the “beta-1 (IA) maximal response relative to isoproterenol” value in assay [1] is “(0.16)”. Also, the “beta-2 (IA) maximal response relative to isoproterenol” value in assay [2] is recorded as “(0.03)”. Further, in assay [3], the EC50 was 94 nM and the “beta-3 (IA) maximal response relative to isoproterenol” value is reported as “(1.1)”.

On to `CCCCN(Cc1ccccc1)S(=O)(=O)c1ccc(N2CCC(NCC(O)c3ccc(O)c(NS(C)(=O)=O)c3)CC2)cc1` (stereo not shown) [Example 3, N-Benzyl-N-butyl-4-{4-[2-hydroxy-2-(4-hydroxy-3-methanesulfonylamino-phenyl)-ethylamino]-piperidin-1-yl}-benzenesulfonamide], for which, in assay [1], the EC50 stood at 2100 nM and the “beta-1 (IA) maximal response relative to isoproterenol” value was “(0.66)”. In assay [2], the concentration for a half-maximal effect (EC50) came out at 310 nM and the “beta-2 (IA) maximal response relative to isoproterenol” value is listed as “(0.59)”. In assay [3], the EC50 was determined as 15 nM and the “beta-3 (IA) maximal response relative to isoproterenol” value is given as “(1.1)”.

For `O=c1[nH]c2cccc(OCC(O)CNC3CCN(c4ccc(S(=O)(=O)NCc5ccccc5)cc4)CC3)c2[nH]1` (stereo not shown) [Example 4, N-Benzyl-4-{4-[2-hydroxy-3-(2-oxo-2,3-dihydro-1H-benzoimidazol-4-yloxy)-propylamino]-piperidin-1-yl}-benzenesulfonamide], the “beta-1 (IA) maximal response relative to isoproterenol” value in assay [1] is recorded as “(0.17)”. Moreover, the “beta-2 (IA) maximal response relative to isoproterenol” value in assay [2] is given as “(0)”. In assay [3], the EC50 turned out to be 21 nM and the “beta-3 (IA) maximal response relative to isoproterenol” value was “(0.78)”.

`CS(=O)(=O)Nc1cc(C(O)CNC2CCN(c3ccc(S(=O)(=O)NCc4ccccc4)cc3)CC2)ccc1O` (stereo not shown) [Example 5, N-Benzyl-4-{4-[2-hydroxy-2-(4-hydroxy-3-methanesulfonylamino-phenyl)-ethylamino]-piperidin-1-yl}-benzenesulfonamide]: in assay [1], the 50% effective concentration (EC50) was found to be 2200 nM and the “beta-1 (IA) maximal response relative to isoproterenol” value is “(0.59)”. Moreover, the “beta-2 (IA) maximal response relative to isoproterenol” value in assay [2] was “(0.07)”. Also, in assay [3], the EC50 is 16 nM and the “beta-3 (IA) maximal response relative to isoproterenol” value was “(0.98)”.

Take `O=S(=O)(NCc1ccccc1)c1ccc(N2CCC(NC[C@H](O)COc3ccc(O)cc3)CC2)cc1` [Example 6, N-Benzyl-4-{4-[(2S)-2-hydroxy-3-(4-hydroxy-phenoxy)-propylamino]-piperidin-1-yl}-benzenesulfonamide]: in assay [3], the EC50 was 200 nM and the “beta-3 (IA) maximal response relative to isoproterenol” value is given as “(0.76)”.

Regarding `COc1ccc(NS(=O)(=O)c2ccc(N3CCC(NC[C@H](O)COc4cccc5[nH]c(=O)[nH]c45)CC3)cc2)cc1OC` [Example 7, N-(3,4-Dimethoxy-phenyl)-4-{4-[(2S)-2-hydroxy-3-(2-oxo-2,3-dihydro-1H-benzoimidazol-4-yloxy)-propylamino]-piperidin-1-yl}-benzenesulfonamide], in assay [1], the EC50 was 600 nM and the “beta-1 (IA) maximal response relative to isoproterenol” value is reported as “(0.15)”. In addition, the “beta-2 (IA) maximal response relative to isoproterenol” value in assay [2] is given as “(0.01)”. In assay [3], the EC50 came to 20 nM and the “beta-3 (IA) maximal response relative to isoproterenol” value is given as “(0.8)”.

`CS(=O)(=O)Nc1cc(C(O)CNC2CCN(c3ccc(S(=O)(=O)N4CCCC4C(=O)O)cc3)CC2)ccc1O` (stereo not shown) [Example 18, 1-(4-{4-[2-Hydroxy-2-(4-hydroxy-3-methanesulfonylamino-phenyl)-ethylamino]-piperidin-1-yl}-benzenesulfonyl)-pyrrolidine-2-carboxylic Acid]: the “beta-1 (IA) maximal response relative to isoproterenol” value in assay [1] is recorded as “(0.29)”. Also, in assay [2], the EC50 worked out at 1000 nM and the “beta-2 (IA) maximal response relative to isoproterenol” value is “(0.55)”. In assay [3], the EC50 came to 41 nM and the “beta-3 (IA) maximal response relative to isoproterenol” value is “(0.99)”.

`CCCCN(CC(=O)O)S(=O)(=O)c1ccc(N2CCC(NC[C@H](O)c3ccc(O)c(NS(C)(=O)=O)c3)CC2)cc1` [Example 20, [Butyl-(4-{4-[(2R)-2-hydroxy-2-(4-hydroxy-3-methanesulfonylamino-phenyl)-ethylamino]-piperidin-1-yl}-benzenesulfonyl)-amino]-acetic Acid]: in assay [1], the EC50 stood at 10000 nM and the “beta-1 (IA) maximal response relative to isoproterenol” value is “(0.4)”. Also, in assay [2], the EC50 is 10000 nM and the “beta-2 (IA) maximal response relative to isoproterenol” value is “(0.3)”. Also, in assay [3], the EC50 was 10 nM and the “beta-3 (IA) maximal response relative to isoproterenol” value was “(1)”.

Take `CCOC(=O)CN(C)S(=O)(=O)c1ccc(N2CCC(NC[C@H](O)c3ccc(O)c(NS(C)(=O)=O)c3)CC2)cc1` [Example 25, [(4-{4-[(2R)-2-Hydroxy-2-(4-hydroxy-3-methanesulfonylamino-phenyl)-ethylamino]-piperidin-1-yl}-benzenesulfonyl)-methyl-amino]-acetic Acid Ethyl Ester]: in assay [1], the 50% effective concentration (EC50) was 1000 nM and the “beta-1 (IA) maximal response relative to isoproterenol” value is “(0.63)”. In assay [2], the EC50 is 1430 nM and the “beta-2 (IA) maximal response relative to isoproterenol” value was “(0.37)”. Moreover, in assay [3], the EC50 worked out at 52 nM and the “beta-3 (IA) maximal response relative to isoproterenol” value was “(1)”.

In the case of `CS(=O)(=O)Nc1cc([C@@H](O)CNC2CCN(c3ccc(S(=O)(=O)N(CC(=O)O)CC(=O)O)cc3)CC2)ccc1O` [Example 55, 2-((Carboxymethyl)[(4-{4-[((2R)-2-hydroxy-2-{4-hydroxy-3-[(methylsulfonyl)amino]phenyl)ethyl)amino]-1-piperidinyl}phenyl)sulfonyl]amino}acetic Acid], in assay [3], the EC50 was determined as 410 nM and the “beta-3 (IA) maximal response relative to isoproterenol” value is given as “(0.94)”.
